Patent US20070087378A1, “Polynucleotide and polypeptide fat metabolism regulators and uses thereof” (priority 2002, published 2007)
Entries after “also recorded” stand apart in the source; their conditions may differ.

What was measured:
[1] = test system: wild-type nematodes; assay: Nile Red fat staining of wild-type nematodes (feeding RNAi screen; compound treatment); type: in vivo, C. elegans
[2] = test system: daf-2(e1370) mutant nematodes; set-up: species or system C. elegans; conditions: in vivo
[3] = test system: tub-1(nr2004) mutant nematodes; set-up: species or system C. elegans; conditions: in vivo
[4] = test system: tph-1(mg280) mutant nematodes; assay: Nile Red fat staining of tph-1(mg280) nematodes (RNAi epistasis analysis; compound treatment); type: in vivo, C. elegans; conditions: adult tph-1(mg280) nematodes, 500 μM
[5] = test system: nematode progeny; assay: Continuous AICAR treatment: growth and development of nematode progeny; conditions: relative to untreated control progeny
Method: Adult wild-type nematodes, daf-2 (e1370), tph-1(mg280), and tub-1(nr2004) mutant nematodes were treated with 500 μM AICAR, and their fat content was detected using Nile Red as described above. […] To determine whether the effects of AICAR were reversible, AICAR-treated nematodes were then moved to culture plates without AICAR. […] The effect of continuous AICAR treatment was tested by seeding AICAR plates with five hermaphrodites, and then monitoring the effect of AICAR on the growth and development of nematode progeny relative to untreated control progeny.

[6] = test system: C. elegans; assay: Growth rate, brood-size, pharyngeal pumping, dauer formation, dauer recovery and lifespan assays; conditions: concentrations between 0.001 μg/ml and 25 μg/ml
[7] = test system: lpo-1 mutant nematodes; set-up: species or system C. elegans; conditions: in vivo

## NC(=O)c1ncn([C@@H]2O[C@H](CO)[C@@H](O)[C@H]2O)c1N [AICAR, 5-aminoimidazole-4-carbozamide ribonucleoside]
[1]; 500 μM, wild-type and daf-2, tph-1, tub-1 mutant nematodes
  time at which reduction in fat content was detectable: twenty-four
[1]; adult wild-type nematodes, 500 μM
  fat content relative to untreated control nematodes: progressive reduction in fat content
[1]; treated nematodes moved to culture plates without AICAR
  reversibility of fat reduction: regained their fat content
[2]
  fat content relative to untreated control nematodes: progressive reduction in fat content
[3]
  fat content relative to untreated control nematodes: progressive reduction in fat content
[4]
  fat content relative to untreated control nematodes: progressive reduction in fat content
[5]
  effect on growth and development of progeny: dramatic retardation of larval growth accompanied by depleted fat stores

## CCN(CC)c1ccc2nc3c4ccccc4c(=O)cc-3oc2c1 [Nile Red, 9-diethylamino-5H-benzo[α]phenoxazine-5-one]
[6]
  adverse effects on growth rate, brood-size, pharyngeal pumping, dauer formation, dauer recovery, or lifespan: No adverse effects

## CC[C@H](C)C(=O)O[C@H]1C[C@@H](C)C=C2C=C[C@H](C)[C@H](CC[C@@H]3C[C@@H](O)CC(=O)O3)[C@H]21 [mevinolin]
[7]
  fat content / fat accumulation by Nile Red staining: reduced; also recorded: decreased fat accumulation
